From the NIST ThermoML archive (doi:10.1016/j.tca.2013.08.007)
± gives the expanded uncertainty stated by the source.

Experiment: mn = molality of the nth substance listed, in mol/kg
Conditions: 101 kPa, Liquid, Vibrating tube method

[Cl-].[Na+] [sodium chloride] + O
mass density [kg/m3]
Conditions | m1 = 0.2 | m1 = 0.4 | m1 = 0.6 | m1 = 0.8 | m1 = 1 | m1 = 1.5
288.15 K | 1007.43 ± 0.31 | 1015.66 ± 0.33 | 1023.65 ± 0.34 | 1031.47 ± 0.35 | 1039.16 ± 0.37 | 1058.09 ± 0.41
298.15 K | 1005.16 ± 0.31 | 1013.14 ± 0.32 | 1020.96 ± 0.34 | 1028.64 ± 0.35 | 1036.19 ± 0.37 | 1054.58 ± 0.4
308.15 K | 1002.07 ± 0.31 | 1009.91 ± 0.32 | 1017.59 ± 0.33 | 1025.13 ± 0.35 | – | 1050.69 ± 0.4
318.15 K | 998.17 ± 0.3 | 1005.91 ± 0.32 | – | 1020.82 ± 0.34 | 1028.35 ± 0.36 | 1046.38 ± 0.39
